# Laboratory results reported in patent publication US20250057790A1, “AN INJECTABLE PHARMACEUTICAL COMPOSITION FOR THE TREATMENT OF RESPIRATORY DISEASES IN ANIMALS” (priority 2021, published 2025).
# How the values were obtained:
# A. pleuropneumoniae = assay: MIC determination, broth-microdilution (CLSI VET01-A4), field isolates; format: cell-based, Actinobacillus pleuropneumoniae
# Experimental: This study determined the in vitro activity Compound (A), the enantiomer of the compound of Formula (I), against different isolates of Actinobacillus (A.) pleuropneumoniae, Bordetella (B.) bronchiseptica, Mannheimia (M.) haemolytica, Pasteurella (P.) multocida, Histophilus (H.) somni and Glaesserella parasuis collected in different European countries.
# The in vitro activity was determined by measuring the minimum inhibitory concentrations (MIC) according to CLSI document VET01-A4 [1] and by calculating MIC50 and MIC90.
# A total of 193 field isolates were tested: 31 of A. pleuropneumoniae, 20 of B. bronchiseptica, 20 of H. somni, 20 H. parasuis, 55 of M. haemolytica and 47 of P. multocida. All bacteria were isolated from the respiratory tract of cattle and swine suffering from respiratory disease. All isolates were epidemiologically unrelated as specified by the different suppliers. E. coli ATCC 25922 (ID 6105) and M. haemolytica ATCC 33396 (ID 6374) were used as reference strains for testing isolates of B. bronchiseptica, M. haemolytica and P. multocida. A. pleuropneumoniae ATCC 27090 (ID 6314) and H. somni ATCC 700025 (ID 6315) were used as reference strains for the testing isolates of A. pleuropneumoniae, H. somni and Glaesserella parasuis. Additionally, H. parasuis (G. parasuis) ATCC 19417 was included as type strain for growth control.
# • Mueller-Hinton agar (Becton Dickinson, Lot 9224866) • Cation-adjusted Mueller-Hinton broth, (CAVHB, Becton Dickinson, Lot 8190586) • Sheep blood, defibrinated (Thermo Scientific, Lot 37091500) • Chocolate agar, GC II with IsoVitalex™ (Becton Dickinson, Lot 0147695) • GC-agar base (Becton Dickinson, Lot 6082608) • Hemoglobin solution (Becton Dickinson, Lot 7142854) • Vitox (Oxoid, Lot 2344976) • Veterinary fastidious Medium (VFM), prepared according to CLSI document VET01-A4 [1], containing: • CAMHB (Becton Dickinson, Lot 8190586) • Yeast extract (Sigma, Lot BCBS5470V) • Lysed horse blood (Thermo Scientific, Lot 35875000) • Supplement C™ (Becton Dickinson, Lot 8030960) • Deionized water
# The MICs for all isolates except for H. somni and Glaesserella parasuis isolates, were determined by using the broth-microdilution method according to CLSI document VET01-A4 [1]. For isolates of H. somni and Glaesserella parasuis the agar-dilution method with chocolate agar GC II, was used. The test concentration range for all compounds was 16 μg/mL to 0.016 μg/mL.
# The MIC results were interpreted according to the CLSI document VET01-S3 [2]. […] All wells containing test item were compared with the growth-control wells. The lowest concentration of compound at which no visible growth (i.e. no turbidity) was detected by the unaided eye was recorded as the MIC. […]
# [1] = Injection site reactions in cattle; format: in vivo; conditions: injectable pharmaceutical compositions
# Experimental: Cattle injected with injectable pharmaceutical compositions containing Compound (A) were evaluated for reactions at the injection site. These injection site reactions were compared to the injection site reactions of cattle injected with injectable pharmaceutical compositions containing Compounds (B) and (C). The compounds were formulated as aqueous solution injectable pharmaceutical compositions or as suspension injectable pharmaceutical compositions as indicated below. These formulations were prepared as described in Examples 1 and 2. Compound (A) was formulated as both an aqueous solution using the free base form of the compound and as a suspense using the dihydrochloride salt of the compound. The composition of the aqueous solution injectable pharmaceutical composition was 15% w/v of Compound A, 15% w/v Poloxamer […], 6% w/v Benzyl Alcohol, 7% w/v Citric Acid, and QS Water. The composition of the suspension injectable pharmaceutical composition was 15% w/v Compound A (17.5% w/v HCl salt of Compound A), 0.1% w/v Kolliphor HS 15 and QS Miglyol 812. Compound A was administered to the animals in a dose of 10 mg/kilogram of body weight. Compound (B) was formulated as both an aqueous solution using the free base form of the compound and as a suspense using the dihydrochloride salt of the compound. The composition of the aqueous solution injectable pharmaceutical composition was 15% w/v of Compound B, 15% w/v Poloxamer […], 6% w/v Benzyl Alcohol, 7% w/v Citric Acid, and QS Water. The composition of the suspension injectable pharmaceutical composition was 15% w/v Compound B (17.5% w/v HCl salt of Compound B), 0.1% w/v Kolliphor HS 15 and QS Miglyol 812. Compound A was administered to the animals in a dose of 10 mg/kilogram of body weight. Compound (C) was formulated as both an aqueous solution using the free base form of the compound. The composition of the aqueous solution injectable pharmaceutical composition was 10% w/v of Compound C, 15% w/v Poloxamer […], 6% w/v Benzyl Alcohol, 7% w/v Citric Acid, and QS Water. Compound A was administered to the animals in a dose of 10 mg/kilogram of body weight. Injection sites were examined clinically by a trained person, Size of the swelling is measured with a ruler to the closest 0.5 cm horizontally, vertical and depth. These three measured values were multiplied to an estimation of the volume of the square box surrounding the observed swelling.
# [2] = Actinobacillus pleuropneumoniae, 31 isolates, broth microdilution
compound,measurement,setting,value
COCCNCc1ccc(C#Cc2ccc(C(=O)N[C@H](C(=O)NO)C(C)(C)N)cc2)cc1 [Compound A],MIC50,A. pleuropneumoniae; [2],1 µg/mL
same,MIC90,A. pleuropneumoniae; [2],2 µg/mL
same,Distribution of MICs: number of isolates with MIC 1 μg/mL,A. pleuropneumoniae; of 31 isolates tested,22
same,Distribution of MICs: number of isolates with MIC 2 μg/mL,A. pleuropneumoniae; of 31 isolates tested,9
same,"Injection site reactions, overall assessment",[1],minor injection reactions which were resolved by Day 6
same,"Injection site reactions, overall assessment",[1]; listed as Compound (A),tolerated at the injection site
